Test results published in ChEMBL document CHEMBL4665688, “Discovery of AB680: A Potent and Selective Inhibitor of CD73” (J Med Chem, 2020).

What was measured:
5'-nucleotidase [1] = target: T1, 5'-nucleotidase (Homo sapiens, UniProt P21589); assay: Inhibition of human CD73 expressed in CHO cells using AMP as substrate preincubated for 60 mins followed by substrate addition and measured after 60 mins by PiColorLock gold reagent based colorimetric assay; assay type: cell-based
[2] = Clearance in Sprague-Dawley rat at 0.5 mg/kg, iv; assay type: ADME, organism-based; settings: in vivo
5'-nucleotidase [3] = target: T1, 5'-nucleotidase; assay: Inhibition of human CD73 using AMP as substrate by Malachite green phosphate reagent-based assay

T1 sequence (P21589 whole entry): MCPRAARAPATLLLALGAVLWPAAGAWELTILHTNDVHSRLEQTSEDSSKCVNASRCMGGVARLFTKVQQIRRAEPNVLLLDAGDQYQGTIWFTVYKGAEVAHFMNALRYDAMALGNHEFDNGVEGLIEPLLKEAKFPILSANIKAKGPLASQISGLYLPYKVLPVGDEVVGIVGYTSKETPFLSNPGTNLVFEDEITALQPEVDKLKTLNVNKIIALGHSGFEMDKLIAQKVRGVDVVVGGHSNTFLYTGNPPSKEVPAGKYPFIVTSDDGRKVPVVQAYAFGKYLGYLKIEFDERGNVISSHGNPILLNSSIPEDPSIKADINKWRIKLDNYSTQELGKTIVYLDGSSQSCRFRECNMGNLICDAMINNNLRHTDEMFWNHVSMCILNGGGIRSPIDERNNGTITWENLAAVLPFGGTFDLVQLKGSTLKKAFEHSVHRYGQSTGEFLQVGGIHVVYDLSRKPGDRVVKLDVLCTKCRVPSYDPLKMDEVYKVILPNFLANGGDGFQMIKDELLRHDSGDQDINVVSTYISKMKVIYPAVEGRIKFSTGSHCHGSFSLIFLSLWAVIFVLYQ

Work on `C[C@H](Nc1nc(Cl)nc2c1cnn2[C@@H]1O[C@H](COP(=O)(O)CP(=O)(O)O)[C@@H](O)[C@H]1O)c1cccc(F)c1` yielded an IC50 (5'-nucleotidase [1]) of 0.031 nM and a clearance [2] of 0.833 mL/min/kg.

For `O=P(O)(O)CP(=O)(O)OC[C@H]1O[C@@H](n2cnc3c(NCc4ccccc4Cl)nc(Cl)nc32)[C@@H](F)[C@@H]1O`, the IC50 (5'-nucleotidase [1]) was 4.2 nM.

`CCc1nc(NCc2ccccc2)c2ncn([C@@H]3O[C@H](COP(=O)(O)CP(=O)(O)O)[C@@H](O)[C@H]3O)c2n1` showed an IC50 (5'-nucleotidase [1]) of 12 nM.

Work on `C[C@H](Nc1nc(Cl)nc2c1ccn2[C@@H]1O[C@H](COP(=O)(O)CP(=O)(O)O)[C@@H](O)[C@H]1O)c1ccccc1F` yielded an IC50 (5'-nucleotidase [1]) of 0.028 nM and a clearance [2] of 0.833 mL/min/kg.

For `O=P(O)(O)CP(=O)(O)OC[C@H]1O[C@@H](n2cnc3c(NC4CC4)nc(Cl)nc32)[C@H](O)[C@@H]1O`, the IC50 (5'-nucleotidase [1]) was 1.7 nM.

In the case of `CN(c1nc(Cl)nc2c1ncn2[C@@H]1O[C@H](COP(=O)(O)CP(=O)(O)O)[C@@H](O)[C@@H]1F)C1CCCC1`, the IC50 (5'-nucleotidase [1]) is reported as 0.15 nM.

With `CNc1nc(NCc2ccccc2)c2ncn([C@@H]3O[C@H](COP(=O)(O)CP(=O)(O)O)[C@@H](O)[C@H]3O)c2n1` the IC50 (5'-nucleotidase [1]) was 5 nM.

Molecule `O=P(O)(O)CP(=O)(O)OC[C@H]1O[C@@H](n2cnc3c(NC4CC4)nc(Cl)nc32)[C@@H](F)[C@@H]1O` has an IC50 (5'-nucleotidase [1]) of 2.6 nM.

`CNc1nc(Cl)nc2c1ncn2[C@@H]1O[C@H](COP(=O)(O)CP(=O)(O)O)[C@@H](O)[C@@H]1F` showed an IC50 (5'-nucleotidase [1]) of 12 nM.

For `Nc1ncnc2c1ncn2[C@@H]1O[C@H](COP(=O)(O)CP(=O)(O)O)[C@@H](O)[C@H]1F`, the IC50 (5'-nucleotidase [1]) was 18 nM.

With `O=P(O)(O)CP(=O)(O)OC[C@H]1O[C@@H](n2cnc3c(NCc4ccccc4)nc(-c4ccccc4)nc32)[C@@H](F)[C@@H]1O` the IC50 (5'-nucleotidase [1]) was 10 nM.

With `O=P(O)(O)CP(=O)(O)OC[C@H]1O[C@@H](n2cnc3c(NCc4ccccc4)nc(Cl)nc32)[C@@H](F)[C@@H]1O` the IC50 (5'-nucleotidase [1]) was 0.7 nM and the clearance [2] was 1 mL/min/kg.

Molecule `C[C@@H](Nc1nc(Cl)nc2c1cnn2[C@@H]1O[C@H](COP(=O)(O)CP(=O)(O)O)[C@@H](O)[C@@H]1F)c1ccccc1` has an IC50 (5'-nucleotidase [1]) of 2.1 nM and a clearance [2] of 9.33 mL/min/kg.

For `CC(C)Nc1nc(Cl)nc2c1ncn2[C@@H]1O[C@H](COP(=O)(O)CP(=O)(O)O)[C@@H](O)[C@H]1O`, the IC50 (5'-nucleotidase [1]) was 0.7 nM.

Molecule `O=P(O)(O)CP(=O)(O)OC[C@H]1O[C@@H](n2cnc3c(NCc4ccncc4)nc(Cl)nc32)[C@@H](F)[C@@H]1O` has an IC50 (5'-nucleotidase [1]) of 3.6 nM.

In the case of `O=P(O)(O)CP(=O)(O)OC[C@H]1O[C@@H](n2cnc3c(NC4CCCC4)nc(Cl)nc32)[C@H](O)[C@@H]1O`, the IC50 (5'-nucleotidase [1]) is reported as 0.2 nM.

`O=P(O)(O)CP(=O)(O)OC[C@H]1O[C@@H](n2cnc3c(NCc4ccccc4)nc(N4CCCC4)nc32)[C@H](O)[C@@H]1O` gave an IC50 (5'-nucleotidase [1]) of 48 nM.

`Nc1ncnc2c1ncn2[C@@H]1O[C@H](COP(=O)(O)CP(=O)(O)O)[C@@H](O)[C@H]1O` [PHOSPHOMETHYLPHOSPHONIC ACID ADENOSYL ESTER] gave an IC50 (5'-nucleotidase [3]) of 187 nM.

For `O=P(O)(O)CP(=O)(O)OC[C@H]1O[C@@H](n2ncc3c(NCc4ccccc4)nc(Cl)nc32)[C@H](O)[C@@H]1O`, the IC50 (5'-nucleotidase [1]) was 0.052 nM and the clearance [2] was 3.33 mL/min/kg.

With `O=P(O)(O)CP(=O)(O)OC[C@H]1O[C@@H](n2cnc3c(NC4CCCC4)nc(C(O)C4CCOCC4)nc32)[C@@H](F)[C@@H]1O` (stereo partly specified) the IC50 (5'-nucleotidase [1]) was 202 nM.

`O=P(O)(O)CP(=O)(O)OC[C@H]1O[C@@H](n2cnc3c(NCc4ccccc4)nc(C(F)(F)F)nc32)[C@@H](F)[C@@H]1O` gave an IC50 (5'-nucleotidase [1]) of 18 nM.

Molecule `O=P(O)(O)CP(=O)(O)OC[C@H]1O[C@@H](n2cnc3c(NC4CCCC4)nc(Cl)nc32)[C@@H](F)[C@@H]1O` has an IC50 (5'-nucleotidase [1]) of 0.4 nM and a clearance [2] of 2.5 mL/min/kg.

Molecule `Nc1nc(Cl)nc2c1ncn2[C@@H]1O[C@H](COP(=O)(O)CP(=O)(O)O)[C@@H](O)[C@@H]1F` has an IC50 (5'-nucleotidase [1]) of 3.4 nM.

Work on `O=P(O)(O)CP(=O)(O)OC[C@H]1O[C@@H](n2cnc3c(NC4CCCC4)nc(C(O)c4ccccc4)nc32)[C@@H](F)[C@@H]1O` (stereo partly specified) yielded an IC50 (5'-nucleotidase [1]) of 3.3 nM.

Work on `O=P(O)(O)CP(=O)(O)OC[C@H]1O[C@@H](n2cnc3c(NCc4cccc(Cl)c4)nc(Cl)nc32)[C@@H](F)[C@@H]1O` yielded an IC50 (5'-nucleotidase [1]) of 1.3 nM.

For `C[C@H](Nc1nc(Cl)nc2c1cnn2[C@@H]1O[C@H](COP(=O)(O)CP(=O)(O)O)[C@@H](O)[C@@H]1F)c1ccccc1`, the IC50 (5'-nucleotidase [1]) was 5.4 nM and the clearance [2] was 0.483 mL/min/kg.

With `C[C@H](Nc1nc(Cl)nc2c1cnn2[C@@H]1O[C@H](COP(=O)(O)CP(=O)(O)O)[C@@H](O)[C@H]1O)c1ccc(F)cc1` the IC50 (5'-nucleotidase [1]) was 0.095 nM.

In the case of `C[C@H](Nc1nc(Cl)nc2c1ncn2[C@@H]1O[C@H](COP(=O)(O)CP(=O)(O)O)[C@@H](O)[C@H]1O)c1ccccc1`, the IC50 (5'-nucleotidase [1]) is reported as 0.3 nM.

`CC(C)Nc1nc(Cl)nc2c1ncn2[C@@H]1O[C@H](COP(=O)(O)CP(=O)(O)O)[C@@H](O)[C@@H]1F` showed an IC50 (5'-nucleotidase [1]) of 3.6 nM.

For `COCc1nc(NC2CCCC2)c2ncn([C@@H]3O[C@H](COP(=O)(O)CP(=O)(O)O)[C@@H](O)[C@@H]3F)c2n1`, the IC50 (5'-nucleotidase [1]) was 0.6 nM.

`C[C@@H](Nc1nc(Cl)nc2c1ncn2[C@@H]1O[C@H](COP(=O)(O)CP(=O)(O)O)[C@@H](O)[C@H]1O)c1ccccc1` gave an IC50 (5'-nucleotidase [1]) of 0.7 nM.

`Nc1nc(Cl)nc2c1ncn2[C@@H]1O[C@H](COP(=O)(O)CP(=O)(O)O)[C@@H](O)[C@H]1O` gave an IC50 (5'-nucleotidase [1]) of 5 nM.

With `O=P(O)(O)CP(=O)(O)OC[C@H]1O[C@@H](n2cnc3c(N4Cc5ccccc5C4)nc(Cl)nc32)[C@@H](F)[C@@H]1O` the IC50 (5'-nucleotidase [1]) was 1.1 nM.

Work on `O=P(O)(O)CP(=O)(O)OC[C@H]1O[C@@H](n2cnc3c(NCc4ccc(Cl)cc4)nc(Cl)nc32)[C@@H](F)[C@@H]1O` yielded an IC50 (5'-nucleotidase [1]) of 2.4 nM.

`CN(c1nc(Cl)nc2c1ncn2[C@@H]1O[C@H](COP(=O)(O)CP(=O)(O)O)[C@@H](O)[C@H]1O)C1CCCC1` gave an IC50 (5'-nucleotidase [1]) of 0.12 nM.

In the case of `CCNc1nc(Cl)nc2c1ncn2[C@@H]1O[C@H](COP(=O)(O)CP(=O)(O)O)[C@@H](O)[C@@H]1F`, the IC50 (5'-nucleotidase [1]) is reported as 5 nM.

Molecule `C[C@@H](Nc1nc(Cl)nc2c1cnn2[C@@H]1O[C@H](COP(=O)(O)CP(=O)(O)O)[C@@H](O)[C@H]1O)c1ccccc1` has an IC50 (5'-nucleotidase [1]) of 0.058 nM and a clearance [2] of 2.83 mL/min/kg.

Molecule `Cc1nc(NCc2ccccc2)c2ncn([C@@H]3O[C@H](COP(=O)(O)CP(=O)(O)O)[C@@H](O)[C@@H]3F)c2n1` has an IC50 (5'-nucleotidase [1]) of 4 nM.

In the case of `C#Cc1nc(NCc2ccccc2)c2ncn([C@@H]3O[C@H](COP(=O)(O)CP(=O)(O)O)[C@@H](O)[C@@H]3F)c2n1`, the IC50 (5'-nucleotidase [1]) is reported as 2 nM.

Molecule `O=P(O)(O)CP(=O)(O)OC[C@H]1O[C@@H](n2ncc3c(NC4CCCC4)nc(Cl)nc32)[C@H](O)[C@@H]1O` has an IC50 (5'-nucleotidase [1]) of 0.027 nM and a clearance [2] of 10.5 mL/min/kg.

`C[C@H](Nc1nc(Cl)nc2c1ccn2[C@@H]1O[C@H](COP(=O)(O)CP(=O)(O)O)[C@@H](O)[C@H]1O)c1cccc(F)c1` gave an IC50 (5'-nucleotidase [1]) of 0.032 nM and a clearance [2] of 0.667 mL/min/kg.

Molecule `C[C@H](Nc1nc(Cl)nc2c1cnn2[C@@H]1O[C@H](COP(=O)(O)CP(=O)(O)O)[C@@H](O)[C@H]1O)c1ccccc1F` has an IC50 (5'-nucleotidase [1]) of 0.07 nM and a clearance [2] of 0.667 mL/min/kg.

`O=P(O)(O)CP(=O)(O)OC[C@H]1O[C@@H](n2cnc3c(NCc4ccccc4)nc(CCc4ccccc4)nc32)[C@@H](F)[C@@H]1O` showed an IC50 (5'-nucleotidase [1]) of 18 nM.

Work on `C[C@H](Nc1nc(Cl)nc2c1ccn2[C@@H]1O[C@H](COP(=O)(O)CP(=O)(O)O)[C@@H](O)[C@H]1O)c1ccc(F)cc1` yielded an IC50 (5'-nucleotidase [1]) of 0.031 nM and a clearance [2] of 0.5 mL/min/kg.

`O=P(O)(O)CP(=O)(O)OC[C@H]1O[C@@H](n2cnc3c(NCc4ccccc4)nc(Cl)nc32)[C@H](O)[C@@H]1O` showed an IC50 (5'-nucleotidase [1]) of 0.3 nM.

Work on `C[C@@H](Nc1nc(Cl)nc2c1ncn2[C@@H]1O[C@H](COP(=O)(O)CP(=O)(O)O)[C@@H](O)[C@@H]1F)c1ccccc1` yielded an IC50 (5'-nucleotidase [1]) of 1.6 nM and a clearance [2] of 4.67 mL/min/kg.

`O=P(O)(O)CP(=O)(O)OC[C@H]1O[C@@H](n2cnc3c(OCc4ccccc4)nc(Cl)nc32)[C@@H](F)[C@@H]1O` showed an IC50 (5'-nucleotidase [1]) of 1.3 nM.

Molecule `O=P(O)(O)CP(=O)(O)OC[C@H]1O[C@@H](n2ncc3c(NCc4ccccc4)nc(Cl)nc32)[C@@H](F)[C@@H]1O` has an IC50 (5'-nucleotidase [1]) of 5.9 nM.

In the case of `C[C@H](Nc1nc(Cl)nc2c1ncn2[C@@H]1O[C@H](COP(=O)(O)CP(=O)(O)O)[C@@H](O)[C@@H]1F)c1ccccc1`, the IC50 (5'-nucleotidase [1]) is reported as 4.1 nM and the clearance [2] is reported as 0.35 mL/min/kg.

Work on `O=P(O)(O)CP(=O)(O)OC[C@H]1O[C@@H](n2cnc3c(NC4CCCC4)nc(C(O)C4CC4)nc32)[C@@H](F)[C@@H]1O` (stereo partly specified) yielded an IC50 (5'-nucleotidase [1]) of 1.4 nM.

Molecule `COc1nc(NCc2ccccc2)c2ncn([C@@H]3O[C@H](COP(=O)(O)CP(=O)(O)O)[C@@H](O)[C@H]3O)c2n1` has an IC50 (5'-nucleotidase [1]) of 2.2 nM.

Molecule `O=P(O)(O)CP(=O)(O)OC[C@H]1O[C@@H](n2ncc3c(NC4CCCC4)nc(Cl)nc32)[C@@H](F)[C@@H]1O` has an IC50 (5'-nucleotidase [1]) of 0.15 nM and a clearance [2] of 4.5 mL/min/kg.

Molecule `O=P(O)(O)CP(=O)(O)OC[C@H]1O[C@@H](n2cnc3c(N[C@H]4CCOC4)nc(Cl)nc32)[C@@H](F)[C@@H]1O` has an IC50 (5'-nucleotidase [1]) of 0.8 nM.

For `O=P(O)(O)CP(=O)(O)OC[C@H]1O[C@@H](n2cnc3c(NCc4ccccc4)nc(Cc4ccccc4)nc32)[C@@H](F)[C@@H]1O`, the IC50 (5'-nucleotidase [1]) was 1.5 nM.

`O=P(O)(O)CP(=O)(O)OC[C@H]1O[C@@H](n2cnc3c(N4CCCC4)nc(Cl)nc32)[C@@H](F)[C@@H]1O` showed an IC50 (5'-nucleotidase [1]) of 0.9 nM.

Work on `Cc1nc(NCc2ccccc2)c2ncn([C@@H]3O[C@H](COP(=O)(O)CP(=O)(O)O)[C@@H](O)[C@H]3O)c2n1` yielded an IC50 (5'-nucleotidase [1]) of 1.3 nM.
